System: HUVEC cells
Experiment: Test of in vitro proliferation of HUVEC cells induced with FGF-2
Type: cell-based
Details: Homo sapiens, FGF-2 1 ng/ml induced proliferation, ATP luminescence, head says M, cells print nM
Protocol: The compounds according to the invention underwent biochemical studies in order to determine their capacity to inhibit the enzyme methionine-aminopeptidase2 (enzymatic test on isolated enzyme). […] Consequently, the compounds of the invention that show good activity in the MetAP2 enzymatic test were evaluated in a test of in vitro proliferation of HUVEC cells induced with FGF-2. […] After incubation for 48 hours, the medium is aspirated and replaced with the deprivation medium RPMI1640 mentioned previously. A second stimulation is then performed. The cells are again incubated at 37° C. in the presence of CO2. After incubation for 72 hours, the medium is again aspirated and 100 μl of Cell Titer-GLOTM Luminescent Cell Viability Assay (Promega, G7571) are added over 10 minutes. The amount of ATP present in the cells, measured using a luminometer, is proportional to the number cells per well corresponding to the cell proliferation.

Structure (SMILES) | IC50 [nM]
Cc1cc(-c2ccc3c4[nH]ncc4c(=O)n(CC(F)(F)F)c3c2)ccn1 [Compound 186, 7-(2-methylpyrid-4-yl)-5-(2,2,2-trifluoroethyl)-1,5-dihydro-4H-pyrazolo[4,3-c]quinolin-4-one] | 360
O=c1c2cn[nH]c2c2ccc(-c3ccccc3F)cc2n1CC(F)(F)F [Compound 3, 7-(2-fluorophenyl)-5-(2,2,2-trifluoroethyl)-1,5-dihydro-4H-pyrazolo[4,3-c]quinolin-4-one] | 660
